We go through two molecules from patent US5654296A, “Condensed heterocyclic compounds, their production and use” (priority 1994, dated 1997).

Structures can show the parent of a compound that is named as a salt.

What all share (type): biochemical
The test system of assay [1] is serotonine (5-HT) uptake. Description: Activity to inhibit serotonine (5-HT) uptake. Particulars: rat whole brain; 3H-5-HT 10 nM; 37° C.; pH 7.4; read-out: 5-HT uptake inhibitory activity (IC50 μM). The protocol:
(a) Activity to inhibit serotonine (5-HT) uptake
(§1) The experiment was performed in accordance with the method of Hyttel et al. [Psychopharmacology 60, 13, 1978]. The whole brain of a rat was homogenized in 40 volumes of ice-cooled 0.32M sucrose solution containing 10 μM pargyline and, then, centrifuged (600×G) for 10 minutes. The supernatant was centrifuged (2500×G) for 55 minutes to provide a pellet. This pellet was suspended in Krebs-Ringer-phosphate buffer (pH 7.4; 122 mM NaCl, 4.82 mM KCl, 0.972 mM CaCl2, 1.21 mM MgSO4, 12.7 mM Na2 HPO4, 2.97 mM NaH2 PO4, 0.162 mM EDTA sodium, 10 mM glucose, 1.14 mM ascorbic acid) saturated with a mixed gas (95% O and 5% CO2). To 900 μl of this suspention was added a solution of the test drug (10 μl) in DMSO and the mixture was incubated at 37° C. for 5 minutes. Then, 100 μl of ^3 H-5-HT (final concentration 10 nM) was added and the mixture was further incubated at 37° C. for 5 minutes. This reaction mixture was filtered under suction using a GF/B filter and the filter was washed with 4 ml of the above-mentioned buffer. The radioactivity on the filter was measured by the liquid scintillation method.
The amount of the drug which caused a 50% decrease in 5-HT uptake is shown as 50% inhibitory activity (IC50) in Table 42.

Assay [2] concerns 45Ca2+ uptake (veratrine-stimulated, rat cerebral cortex crude synaptosome fraction). Nature of the assay: 45Ca2+ uptake inhibition experiment. Particulars: 30 μM veratrine, 37° C., 10 minutes, read-out: 45Ca2+ uptake inhibitory activity (IC50 μM). On the procedure: The rat cerebral cortex was homogenized in 10 volumes of ice-cooled 0.32M sucrose solution to prepare a crude synaptosome fraction (100×G, 10 min., 12000×G, 20 min.). […] To 900 μl of the homogenate was added a DMSO solution of the test drug (10 μl). The mixture was incubated at 37° C. for 10 minutes, followed by addition of 100 μl of a veratrine solution (containing 0.18 uci ^45 Ca^2+) at a final veratrine concentration of 30 μM. The mixture was incubated at 37° C. for 10 minutes, quenched with 4 ml of ice-cooled EGTA solution (120 mM sodium chloride, 5 mM potassium chloride, 5 mM EGTA, pH=7.5) and suction-filtered using a GF/B filter. The filter was washed twice with 4 ml each of a washing solution (132 mM sodium chloride, 5 mM potassium chloride, 1.3 mM magnesium chloride, 1.2 mM calcium, chloride, 20 mM Tris base, pH 7.5) and the radioactivity of […] was measured by the liquid scintillation method.
The ^45 Ca^2+ uptake inhibition rate was calculated by means of the following equation. [formula] A: The ^45 Ca^2+ uptake after 10 minutes' stimulation with 30 μM veratrine in the presence of the test drug
B: The ^45 Ca^2+ uptake in the absence of veratrine and in the presence of the test drug
C: The ^45 Ca^2+ uptake after 10 minutes' stimulation with 30 μM veratrine in the absence of the test drug
D: The ^45 Ca^2+ uptake in the absence of the test drug and in the absence of veratrine

The test system of assay [3] is norepinephrine (NE) uptake. Description: Activity to inhibit norepinephrine (NE) uptake. To be noted: rat cerebral cortex; 3H-NE; read-out: NE uptake inhibitory activity (IC50 μM). The protocol:
as §1
(b) Activity to inhibit norepinephrine (NE) uptake
Using the rat cerebral cortex and, as the substrate, ^3 H-NE, an experiment was performed by otherwise the same procedure as described for 5-HT.

In the case of `CN(CCCC1(c2ccccc2)CN(C(=O)Nc2ccccc2)Cc2ccccc21)Cc1ccccc1` (stereo not drawn) [IV-19, 4-[3-(N-Benzyl-N-methylamino)propyl]-4-phenyl-2-phenylcarbamoyl-1,2,3,4-tetrahydroisoquinoline hydrochloride], the values for the IC50 in assay [1], in assay [2] and in assay [3] were 0.23 µM, 0.95 µM and 0.56 µM, respectively.
In the same order, the values of `COc1cccc(NC(=O)N2Cc3ccccc3C(CCN3CCN(c4ccc(F)cc4)CC3)(c3ccccc3)C2)c1` (stereo not drawn) [IV-20, 1,2,3,4-Tetrahydro-4-{2-[4-(p-fluorophenyl)piperazin-1-yl]ethyl}-2-(3-methoxyphenyl)carbamoyl-4-phenylisoquinoline hydrochloride] are 0.03 µM, 0.17 µM and 0.12 µM.
